From patent US6613307B1, “Aerosol formulations of salmeterol xinafoate” (SmithKline Beecham Corporation, priority 1998, dated 2003)

Key:
Type in all cases: physicochemical
[1] = Reproducibility: particle size and distribution by laser diffraction (Malvern Mastersizer), Example 11; details: 300 bar, 35° C., acetone 0.6% w/v; for Mean Particle Size: two different days
Experimental: Two different solutions of salmeterol xinafoate in acetone (0.6% w/v) were made and each solution was co-introduced with CO2 via a coaxial nozzle into the particle formation vessel using the apparatus described on two different days to give samples A and B. The operating conditions were 300 bar and 35° C., with flow rates of 0.2 ml/min for the salmeterol solution and 6 ml/min for the supercritical CO2. The crystallised salmeterol xinafoate provided from each solution was examined for particle size and size distribution.

[2] = Dynamic bulk density (fluidisability) of salmeterol xinafoate powders; details: powder
Experimental: The dynamic bulk density (W) is indicative of a substance's fluidisability and is defined as: [formula]
where P is the packed bulk density (g.cm^−3), A is the aerated bulk density (g.cm^−3) and C is the compressibility (%) where C is calculated by the equation: [formula]
Conventionally crystallised salmeterol xinafoate, both before and after micronisation, was compared against salmeterol xinafoate made by the supercritical fluid method described herein. A solution of salmeterol xinafoate in acetone (0.63% w/v) was co-introduced with CO2 at 300 bar and 45° C. via a coaxial nozzle into the particle formation vessel using the apparatus described and shown in FIG. 1 to give sample 1. A solution of salmeterol xinafoate in acetone (0.50% w/v) was cointroduced with CO2 at 100 bar and 55° C. via a coaxial nozzle into the particle formation vessel using the apparatus described and shown in FIG. 1 to give sample 2. In each case, the solution flow rate was 0.4 ml/min and supercritical CO2 was co-introduced into the particle formation vessel at a flow rate of 9 ml/min.
The dynamic bulk densities are shown below in Table 2: […]

[3] = Particle size analysis by laser diffraction (Malvern Mastersizer E), Example 3
Experimental: A solution of salmeterol xinafoate in acetone (0.6% w/v) was co-introduced with CO2 at 200 bar and 55° C. via a coaxial nozzle into the particle formation vessel using the apparatus described and shown in FIG. 1. A series of products was obtained by changing the flow rate ratio of salmeterol xinafoate solution/supercritical CO2, where the flow ratio is defined as: [formula]
The flow ratio was changed between 0.01 and 0.07, with a flow rate of 9 ml/min for the supercritical CO2.
The resultant dry, easily handlable products without significant static charge were examined by scanning electron microscopy (SEM) and by laser diffraction (Malvern Mastersizer E) for particle size analysis (see FIGS. 12-15).
The uniformity index is defined as: [formula]

[4] = Relative static charge: drug remaining coated to vial walls after rolling; details: after rolling drug in vial for 5 minutes
Experimental: Using samples prepared as described in Example 1, a simple test was devised to determine their relative static charge based on the quantity of drug remaining coated to the walls of a vial after rolling a predetermined quantity of drug in the vial for 5 minutes. The greater the drug remaining on the vial, the higher the relative static charge associated with the drug substance.

[5] = Scanning electron microscopy of particles; details: SEM; needle shaped particles from isopropanol (0.2% w/v), 150 bar, 60° C.
Experimental: In another experiment, a solution of salmeterol xinafoate in isopropanol (0.2% w/v) was co-introduced with CO2 at 150 bar and 60° C. via a coaxial nozzle into the particle formation vessel using the apparatus described and shown in FIG. 1. The dry, easily handlable product without significant static charge was examined by SEM (see FIG. 16) and found to be composed of needle shaped particles with a maximum particle dimension of up to 300 microns. Thus by controlling and changing the working conditions of the particle formation process, salmeterol xinafoate products composed of particles with different particle sizes and size distributions were produced.

Row | Dynamic Bulk Density W [2] [g · cm^−3] | % < 5 μm [3] [%] | % < 10 μm [3] [%] | Mean Particle Size [3] | Uniformity index [3] | Compound | also measured
1 | 0.059 | 5.7 | 16.1 | 18.84 μm | 19.2 | OCc1cc(C(O)CNCCCCCCOCCCCc2ccccc2)ccc1O (stereo not shown) [SCF salmeterol xinafoate (sample 2), salmeterol xinafoate] | % Drug Retaining on Vial ([4]; sample 2): 5.7%
2 | 0.312 |  |  |  |  | OCc1cc(C(O)CNCCCCCCOCCCCc2ccccc2)ccc1O (stereo not shown) [conventionally crystallised salmeterol xinafoate (non-micron] [reference compound] | 

Continued, molecule first:

Row | Compound | Dynamic Bulk Density W [2] [g · cm^−3] | % < 5 μm [3] [%] | % < 10 μm [3] [%] | Mean Particle Size [3] | Uniformity index [3] | also measured
3 | OCc1cc(C(O)CNCCCCCCOCCCCc2ccccc2)ccc1O (single isomer, unassigned) [Sample A, salmeterol xinafoate] |  |  |  |  |  | % < 5 microns [1]: 31.6%; % < 10 microns [1]: 67.8%; Uniformity index [1]: 9; Mean Particle Size [1]: 7.2 Microns
4 | OCc1cc(C(O)CNCCCCCCOCCCCc2ccccc2)ccc1O (single isomer, unassigned) [Sample B, salmeterol xinafoate] |  |  |  |  |  | % < 5 microns [1]: 28.3%; % < 10 microns [1]: 64.5%; Uniformity index [1]: 9; Mean Particle Size [1]: 7.7 Microns
5 | OCc1cc(C(O)CNCCCCCCOCCCCc2ccccc2)ccc1O (stereo not shown) [Conventionally crystallised salmeterol xinafoate (micronised] [reference compound] | 0.137 | >90 | >95 | 1-3 μm | 13.1 | % Drug Retaining on Vial [4]: 7.0%
6 | OCc1cc(C(O)CNCCCCCCOCCCCc2ccccc2)ccc1O (stereo not shown) [SCF salmeterol xinafoate (sample 1), salmeterol xinafoate] | 0.033 | 66.0 | 94.5 | 3.85 μm | 10.2 | % Drug Retaining on Vial ([4]; sample 1): 2.5%
7 | OCc1cc(C(O)CNCCCCCCOCCCCc2ccccc2)ccc1O (stereo not drawn) [salmeterol xinafoate, 4-hydroxy-α^1-[[[6-(4-phenylbutoxy)hexyl]amino]methyl]-1,3-benzenedimethanol (salmeterol) 1-hydroxy-2-naphthalenecarboxylate (xinafoate)] |  |  |  |  |  | maximum particle dimension [5]: up to 300 microns
